# Data from PubChem BioAssay (NCI).
#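 Values below derive from 48-hour exposures of cells grown in 96-well plates, with endpoints linearly interpolated between the two concentrations bracketing the appropriate inhibition level. GI50 marks 50% less growth. At the TGI there is no net growth.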
# Key:
# Experiment in all cases: growth of human tumour cells (NCI), 48 h
# [1] = tested on: OVCAR-5 ovarian
# [2] = tested on: SK-MEL-2 melanoma
# [3] = tested on: HCT-15 colon
# [4] = tested on: NCI/ADR-RES ovarian
# [5] = tested on: RXF 393 renal
# [6] = tested on: PC-3 prostate
# [7] = tested on: NCI-H23 lung
# [8] = tested on: SN12C renal
# [9] = tested on: HOP-62 NSCLC
# [10] = tested on: LOX IMVI melanoma
SMILES,GI50 [1],TGI [1],GI50 [2],TGI [2],GI50 [3],TGI [3],GI50 [4],TGI [4],GI50 [5],TGI [5],GI50 [6],TGI [6],GI50 [7],TGI [7],GI50 [8],TGI [8],GI50 [9],TGI [9],GI50 [10],TGI [10]
O=C(/C=C/C12c3ccccc3C(c3ccccc31)C1C(=O)NC(=O)C12)c1ccc(Cl)cc1 (stereo unspecified),1.58 µM,3.35 µM,1.81 µM,3.71 µM,1.47 µM,4.07 µM,1.77 µM,4.93 µM,1.2 µM,2.56 µM,1.39 µM,2.78 µM,1.78 µM,3.83 µM,1.56 µM,3.26 µM,1.69 µM,3.39 µM,1.6 µM,3 µM
CCOC(=O)c1ccc2c(c1)[n+](=O)c(C(C)=O)c(C(F)(F)F)n2[O-],1.56 µM,3.22 µM,1.89 µM,5.22 µM,1.4 µM,3.22 µM,1.89 µM,5.98 µM,2.15 µM,5.77 µM,0.885 µM,2.38 µM,1.54 µM,3.43 µM,2.01 µM,4.55 µM,1.66 µM,3.54 µM,1.47 µM,3.12 µM
CCOC(=O)c1cnn2c3ccccc3n(S(=O)(=O)c3ccc(OC)cc3)c12,0.558 µM,> 100 µM,4.03 µM,> 100 µM,0.119 µM,> 100 µM,0.23 µM,24.5 µM,0.232 µM,,0.375 µM,> 100 µM,0.393 µM,> 100 µM,0.625 µM,> 57.5 µM,0.523 µM,> 100 µM,0.496 µM,> 61 µM
Nc1ccccc1C#C/C=C\C#Cc1c(F)c(F)c(F)c(F)c1F,53.4 µM,> 100 µM,26.3 µM,88.9 µM,15.1 µM,30 µM,19.5 µM,41.2 µM,4.74 µM,22 µM,16.6 µM,43.3 µM,14.7 µM,32.4 µM,7.37 µM,20.5 µM,12.7 µM,27.8 µM,2.68 µM,14.6 µM
COc1cccc(C2C3=C(COC3=O)N(CCO)c3cc4c(cc32)OCO4)c1 (stereo unspecified),2.03 µM,> 50 µM,0.142 µM,0.43 µM,1.02 µM,> 50 µM,0.341 µM,2.72 µM,0.0994 µM,0.352 µM,0.265 µM,> 50 µM,0.589 µM,> 14.2 µM,,> 50 µM,0.598 µM,> 50 µM,0.451 µM,> 50 µM
Cc1ccc(NCCN(C)C)c2c(=O)c3ccccc3sc12,1.76 µM,3.38 µM,2 µM,4.31 µM,2.21 µM,6.53 µM,1.93 µM,4.6 µM,1.96 µM,4.59 µM,1.97 µM,5.13 µM,1.97 µM,4.75 µM,2.45 µM,9.61 µM,1.55 µM,3.11 µM,1.61 µM,3.45 µM
Cc1c(C(N)=O)sc2c1c(=O)n(Cc1ccccc1)c1nnc(-c3ccc(Br)cc3)n21,7.17 µM,21.3 µM,5.73 µM,18.7 µM,0.705 µM,17.9 µM,2.28 µM,11.2 µM,1.81 µM,7.15 µM,4.06 µM,22.3 µM,3.11 µM,15.2 µM,2.36 µM,14.1 µM,1.38 µM,14.4 µM,1.27 µM,10.2 µM
COc1cc2c(=O)n(CCN(C)C)c3c4cc5c(cc4ccc3c2cc1OC)OCO5,0.519 µM,3.8 µM,0.876 µM,1.94 µM,0.391 µM,1.83 µM,0.256 µM,> 50 µM,0.363 µM,1.14 µM,0.338 µM,6.16 µM,0.212 µM,1.38 µM,0.226 µM,> 50 µM,0.193 µM,1.88 µM,0.1 µM,0.32 µM
CN1CCN(Cc2ccc3c(NNC(=O)c4ccccc4)nc4cc(F)ccc4n23)CC1,0.735 µM,70.2 µM,2.41 µM,> 70.6 µM,0.0568 µM,> 49.4 µM,0.22 µM,,0.683 µM,21.3 µM,0.466 µM,> 66.7 µM,0.989 µM,29.6 µM,0.551 µM,> 100 µM,0.27 µM,> 100 µM,0.277 µM,12.6 µM
Clc1ccccc1C(Nc1ncccn1)Nc1ncccn1,,> 100 µM,,> 100 µM,,> 100 µM,,> 100 µM,,> 100 µM,,> 100 µM,,> 100 µM,,> 100 µM,,> 100 µM,,> 100 µM
O=c1cc(-c2ccccc2)oc2cc(OC/C(=N/O)c3ccc(F)cc3)ccc12,> 50 µM,> 50 µM,20.2 µM,> 50 µM,18.5 µM,> 50 µM,21 µM,> 50 µM,14 µM,40.2 µM,11.9 µM,40.1 µM,31.8 µM,> 50 µM,15.5 µM,> 50 µM,> 50 µM,> 50 µM,20.8 µM,> 50 µM
NC(=S)N=Nc1c(O)c2ccccc2c2ccccc12,2.45 µM,6.94 µM,14.9 µM,33.8 µM,3.22 µM,> 55.4 µM,4.3 µM,27 µM,18.7 µM,44.7 µM,9.05 µM,66.6 µM,2.26 µM,6.1 µM,1.73 µM,3.47 µM,2.31 µM,7.87 µM,2.81 µM,11.1 µM
COc1ccc(Cn2cc3c(c2-c2ccccc2)CCc2cnoc2-3)cc1N,0.629 µM,> 100 µM,0.273 µM,> 100 µM,0.15 µM,> 100 µM,0.0828 µM,,0.32 µM,> 100 µM,0.551 µM,> 100 µM,0.441 µM,> 100 µM,0.694 µM,> 100 µM,0.433 µM,> 100 µM,0.766 µM,> 100 µM
C[C@@H]1COCCN1c1cc(C2([S@@](C)(=N)=O)CC2)nc(-c2ccnc3[nH]ccc23)n1,5.11 µM,> 100 µM,5.61 µM,44.9 µM,10 µM,> 100 µM,33.9 µM,> 100 µM,2.34 µM,9.68 µM,10.3 µM,> 100 µM,3.3 µM,45.2 µM,6.02 µM,> 100 µM,3.74 µM,63.6 µM,2.14 µM,14 µM
O=C(Nc1ccccc1O)c1ccc(NS(=O)(=O)c2cccc3cccnc23)cc1,0.744 µM,> 12.7 µM,0.806 µM,4.35 µM,2.08 µM,7.71 µM,0.788 µM,5.96 µM,1.72 µM,5.81 µM,1.46 µM,8.25 µM,2.02 µM,13.7 µM,2.78 µM,> 19.7 µM,0.855 µM,7.33 µM,1.23 µM,4.8 µM
O=C(C[P+](c1ccccc1)(c1ccccc1)c1ccccc1)C[P+](c1ccccc1)(c1ccccc1)c1ccccc1,0.263 µM,0.832 µM,0.341 µM,1.04 µM,0.241 µM,1.6 µM,0.383 µM,11 µM,0.2 µM,0.605 µM,0.938 µM,2.51 µM,0.253 µM,0.888 µM,0.682 µM,2.14 µM,1.46 µM,2.84 µM,0.235 µM,0.637 µM
N#Cc1c(N)nc(NCc2ccccc2)c(C#N)c1-c1ccc(Cl)cc1Cl,96.9 µM,> 100 µM,> 77.2 µM,> 100 µM,> 100 µM,> 100 µM,> 68.1 µM,> 100 µM,52.4 µM,> 100 µM,55.7 µM,> 100 µM,> 76.1 µM,> 100 µM,> 100 µM,> 100 µM,> 51.9 µM,> 85.9 µM,> 100 µM,> 100 µM
CC1=C[C@H]2C[C@H](C)[C@H]3CC[C@H](C)[C@]4(C1)C(=O)C(O)=C(C)C(=O)[C@@]324,20.4 µM,55.4 µM,32.3 µM,> 100 µM,32.7 µM,> 100 µM,17.2 µM,48.4 µM,60.9 µM,> 100 µM,18.4 µM,56 µM,11 µM,29.7 µM,28.7 µM,> 100 µM,28.7 µM,83.6 µM,22.1 µM,51.1 µM
